Assay results as given in US20050227999A1, “Diarylamine derivatives as calcium channel blockers” (NeuroMed Technologies Inc., priority 2004, published 2005).
Where two headings read alike, the source gives them in different places.

What was measured:
[1] = test system: spinal nerve ligation (SNL) injury; experiment: Spinal nerve ligation (SNL) model of neuropathic pain, thermal hyperalgesia; format: in vivo; conditions: rat SNL, 30 mg/kg orally in propylene glycol
Excerpt: Spinal nerve ligation (SNL) injury was induced using the procedure of Kim and Chung, (Kim and Chung 1992) in male Sprague-Dawley rats (Harlan; Indianapolis, Ind.) weighing 200 to 300 grams. Anesthesia was induced with 2% halothane in O2 at 2 L/min and maintained with 0.5% halothane in O2. After surgical preparation of the rats and exposure of the dorsal vertebral column from L4 to S2, the L5 and L6 spinal nerves were tightly ligated distal to the dorsal root ganglion using 4-0 silk suture. The incision was closed, and the animals were allowed to recover for 5 days. […] Sham control rats underwent the same operation and handling as the experimental animals, but without SNL.
The method of Hargreaves and colleagues (Hargreaves, et al., 1988) was employed to access paw-withdrawal latency to a thermal nociceptive stimulus. Rats were allowed to acclimate within a plexiglas enclosure on a clear glass plate maintained at 30° C. A radiant heat source (i.e., high intensity projector lamp) was activated with a timer and focused onto the plantar surface of the affected paw of nerve-injured or carrageenan-injected rats. Paw-withdrawal latency was determined by a photocell that halted both lamp and timer when the paw was withdrawn. The latency to withdrawal of the paw from the radiant heat source was determined prior to carrageenan or […], 3 hours after carrageenan or 7 days after L5/L6 SNL but before drug and after drug ministration. A maximal cut-off of 40 seconds was Employed to prevent tissue damage. Paw withdrawal latencies were thus determined to the Nearest 0.1 second. Reversal of thermal hyperalgesia was indicated by a return of the paw Withdrawal latencies to the pre-treatment baseline latencies (i.e., 21 seconds). Anti nociception Was indicated by a significant (p <0.05) increase in paw withdrawal latency above this baseline. Data were converted to % anti hyperalgesia by the formula: (100qx (test latency−baseline latency)/(cut-off−baseline latency) where cut-off was 21 seconds for determining anti hyperalgesia.
Compound 7 was administered orally in propylene glycol solution at a dose of 30 mg/kg. The percent activity was calculated for thermal hyperalgesia.

[2] = target: T1, human α1G T-type channels (Homo sapiens, UniProt O43497); experiment: T-type calcium channel block, patch clamp in HEK cell lines; format: cell-based
T1 construct: expressed in transfected cells
Protocol: Standard patch-clamp techniques were employed to identify blockers of T-type currents. Briefly, previously described HEK cell lines stably expressing human α1G T-type channels were used for all the recordings (passage #: 4-20, 37° C., 5% CO2). To obtain T-type currents, plastic dishes containing semi-confluent cells were positioned on the stage of a ZEISS AXIOVERT S100 microscope after replacing the culture medium with external solution (see below). Whole-cell patches were obtained using pipettes (borosilicate glass with filament, O.D.: 1.5 mm, I.D.: 0.86 mm, 10 cm length), fabricated on a SUTTER P-97 puller with resistance values of ˜5 MΩ (see below for internal solution).
In the non-inactivating protocol, the holding potential is set at −110 mV and with a pre-pulse at −100 mV for 1 second prior to the test pulse at 40 mV for 50 ms. […]
Test compounds were dissolved in external solution, 0.1-0.01% DMSO. After ˜10 min rest, they were applied by gravity close to the cell using a WPI microfil tubing. The “non-inactivated” pre-pulse was used to examine the resting block of a compound. The “inactivated” protocol was employed to study voltage-dependent block. However, the initial data shown below were mainly obtained using the non-inactivated protocol only. IC50 values are shown for various compounds of the invention in Table 4.

rat formalin model = experiment: Formalin-induced pain model; format: in vivo; conditions: 30 mg/kg IP, 10 minutes prior to formalin, saline control=100%
Protocol: The effects of intrathecally delivered compounds of the invention on the rat formalin model were measured. The compounds were reconstituted to stock solutions of approximately 10 mg/ml in propylene glycol. Eight Holtzman male rats of 275-375 g size were randomly selected per test article.
The following study groups were used, with test article, vehicle control (propylene glycol) and saline delivered intraperitoneally (IP):
Prior to initiation of drug delivery baseline behavioral and testing data were taken.
On the morning of testing, a small metal band (0.5 g) was loosely placed around the right hind paw. The rat was placed in a cylindrical Plexiglas chamber for adaptation a minimum of 30 minutes. Test Article or Vehicle Control Article was administered 10 minutes prior to formalin injection (50 μl of 5% formalin) into the dorsal surface of the right hindpaw of the rat. The animal was then placed into the chamber of the automated formalin apparatus where movement of the formalin injected paw was monitored and the number of paw flinches tallied by minute over the next 60 minutes (Malmberg, A. B., et al., Anesthesiology (1993) 79:270-281).
Results are presented as Maximum Possible Effect±SEM, where saline control=100%.

[3] = target: T2, rat brain N-type calcium channel subunits (α1B+α2δ+β1b cDNA subunits) (Rattus norvegicus, UniProt Q02294); experiment: N-type calcium channel block, whole cell patch clamp in transfected HEK 293 cells; format: cell-based; conditions: holding potential −80 mV to +10 mV
T2 construct: expressed in transfected cells; host or cells: HEK 293
Protocol: N-type calcium channel blocking activity was assayed in human embryonic kidney cells, HEK 293, stably transfected with the rat brain N-type calcium channel subunits (α1B+α2δ+β1b cDNA subunits). Alternatively, N-type calcium channels (α1B+α2δ+β1b cDNA subunits), L-type channels (α1C+δ+β1b cDNA subunits) and P/Q-type channels (α1A+α2δ+β1b cDNA subunits) were transiently expressed in HEK 293 cells. Briefly, cells were cultured in Dulbecco's modified eagle medium (DMEM) supplemented with 10% fetal bovine serum, 200 U/ml penicillin and 0.2 mg/ml streptomycin at 37° C. with 5% CO2. At 85% confluency cells were split with 0.25% trypsin/l mM EDTA and plated at 10% confluency on glass coverslips. At 12 hours the medium was replaced and the cells transiently transfected using a standard calcium phosphate protocol and the appropriate calcium channel cDNA's. Fresh DMEM was supplied and the cells transferred to 28° C./5% CO2. Cells were incubated for 1 to 2 days before cell recording.
Whole cell patch clamp experiments were performed using an Axopatch 200B amplifier (Axon Instruments, Burlingame, Calif.) linked to a personal computer equipped with PCLAMP software. The external and internal recording solutions contained, respectively, 5 mM BaCl2, 10 mM MgCl2, 10 mM HEPES, 40 mM TEACl, 10 mM glucose, 87.5 mM CsCl (pH 7.2) and 108 mM CsMS, 4 mM MgCl2, 9 mM EGTA, 9 mM HEPES (pH 7.2). Currents were typically elicited from a holding potential of −80 mV to +10 mV using Clampex software (Axon Instruments). Typically, currents were first elicited with low frequency stimulation (0.067 Hz) and allowed to stabilize prior to application of the compounds. The compounds were then applied during the low frequency pulse trains for two to three minutes to assess tonic block, and subsequently the pulse frequency was increased to 0.2 Hz to assess frequency dependent block. Data were analyzed using Clampfit (Axon Instruments) and SigmaPlot 4.0 (Jandel Scientific). […]

[4] = test system: T-type over L-type channels; conditions: cited from earlier work

T2 sequence (Q02294 whole entry): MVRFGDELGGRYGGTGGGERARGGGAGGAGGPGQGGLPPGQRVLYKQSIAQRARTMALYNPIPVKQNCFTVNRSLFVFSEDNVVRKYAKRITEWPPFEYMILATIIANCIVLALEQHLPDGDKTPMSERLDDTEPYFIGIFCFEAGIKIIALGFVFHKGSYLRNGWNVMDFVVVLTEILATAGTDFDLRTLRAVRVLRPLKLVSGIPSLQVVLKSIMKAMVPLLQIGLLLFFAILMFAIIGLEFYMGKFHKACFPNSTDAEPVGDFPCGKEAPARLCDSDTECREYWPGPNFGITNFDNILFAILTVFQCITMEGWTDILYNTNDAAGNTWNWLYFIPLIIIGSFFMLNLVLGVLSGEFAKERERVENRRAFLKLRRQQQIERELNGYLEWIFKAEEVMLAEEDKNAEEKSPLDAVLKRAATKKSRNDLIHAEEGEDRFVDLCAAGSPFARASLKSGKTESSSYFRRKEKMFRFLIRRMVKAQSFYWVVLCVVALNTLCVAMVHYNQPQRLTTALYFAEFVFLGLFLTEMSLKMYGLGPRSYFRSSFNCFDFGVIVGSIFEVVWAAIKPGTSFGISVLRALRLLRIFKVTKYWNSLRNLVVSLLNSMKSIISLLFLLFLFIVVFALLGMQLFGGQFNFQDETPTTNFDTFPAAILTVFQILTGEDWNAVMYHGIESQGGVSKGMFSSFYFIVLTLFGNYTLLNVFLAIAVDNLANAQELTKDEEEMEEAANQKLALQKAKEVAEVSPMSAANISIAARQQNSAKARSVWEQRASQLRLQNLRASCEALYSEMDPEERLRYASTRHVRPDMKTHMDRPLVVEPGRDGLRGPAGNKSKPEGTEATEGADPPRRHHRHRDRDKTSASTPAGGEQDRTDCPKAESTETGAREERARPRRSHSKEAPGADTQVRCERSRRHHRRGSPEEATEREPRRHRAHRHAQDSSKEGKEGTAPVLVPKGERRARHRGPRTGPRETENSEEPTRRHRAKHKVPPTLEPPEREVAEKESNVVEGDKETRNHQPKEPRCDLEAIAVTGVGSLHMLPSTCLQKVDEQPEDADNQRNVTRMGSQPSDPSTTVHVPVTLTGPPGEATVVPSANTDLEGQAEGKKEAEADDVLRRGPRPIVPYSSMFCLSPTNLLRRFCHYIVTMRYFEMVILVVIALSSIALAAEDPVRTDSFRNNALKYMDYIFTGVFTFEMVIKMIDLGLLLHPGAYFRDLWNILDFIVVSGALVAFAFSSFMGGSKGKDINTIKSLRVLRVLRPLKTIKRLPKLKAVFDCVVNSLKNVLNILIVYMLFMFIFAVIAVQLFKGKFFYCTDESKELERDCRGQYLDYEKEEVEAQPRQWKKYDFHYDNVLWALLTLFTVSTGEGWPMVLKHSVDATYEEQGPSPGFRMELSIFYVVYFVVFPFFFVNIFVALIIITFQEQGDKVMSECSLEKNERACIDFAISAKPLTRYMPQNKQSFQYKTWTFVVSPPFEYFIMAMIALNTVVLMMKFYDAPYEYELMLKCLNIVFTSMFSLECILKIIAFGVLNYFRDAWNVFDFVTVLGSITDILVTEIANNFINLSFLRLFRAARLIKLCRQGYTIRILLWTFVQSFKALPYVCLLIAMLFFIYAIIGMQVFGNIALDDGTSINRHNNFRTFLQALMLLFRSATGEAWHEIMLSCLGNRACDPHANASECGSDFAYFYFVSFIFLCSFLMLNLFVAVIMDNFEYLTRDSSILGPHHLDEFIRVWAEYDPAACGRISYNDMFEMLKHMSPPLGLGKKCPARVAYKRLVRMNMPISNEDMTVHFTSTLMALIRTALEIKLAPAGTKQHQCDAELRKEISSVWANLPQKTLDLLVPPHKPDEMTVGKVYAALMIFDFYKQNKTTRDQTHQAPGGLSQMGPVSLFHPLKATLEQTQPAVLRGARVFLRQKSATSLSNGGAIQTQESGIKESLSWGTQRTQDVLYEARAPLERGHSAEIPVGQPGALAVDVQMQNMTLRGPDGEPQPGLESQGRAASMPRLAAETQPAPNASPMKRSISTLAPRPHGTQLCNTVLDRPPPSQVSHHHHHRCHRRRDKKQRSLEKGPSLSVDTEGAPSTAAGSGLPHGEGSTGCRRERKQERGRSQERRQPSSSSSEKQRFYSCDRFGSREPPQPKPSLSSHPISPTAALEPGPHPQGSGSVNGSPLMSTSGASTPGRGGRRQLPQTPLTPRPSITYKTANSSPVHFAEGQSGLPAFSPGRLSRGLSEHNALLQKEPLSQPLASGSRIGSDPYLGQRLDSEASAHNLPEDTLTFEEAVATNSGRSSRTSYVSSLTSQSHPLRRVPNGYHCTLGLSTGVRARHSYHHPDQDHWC
T2 sequence (P54290 25-944 partner limits assumed): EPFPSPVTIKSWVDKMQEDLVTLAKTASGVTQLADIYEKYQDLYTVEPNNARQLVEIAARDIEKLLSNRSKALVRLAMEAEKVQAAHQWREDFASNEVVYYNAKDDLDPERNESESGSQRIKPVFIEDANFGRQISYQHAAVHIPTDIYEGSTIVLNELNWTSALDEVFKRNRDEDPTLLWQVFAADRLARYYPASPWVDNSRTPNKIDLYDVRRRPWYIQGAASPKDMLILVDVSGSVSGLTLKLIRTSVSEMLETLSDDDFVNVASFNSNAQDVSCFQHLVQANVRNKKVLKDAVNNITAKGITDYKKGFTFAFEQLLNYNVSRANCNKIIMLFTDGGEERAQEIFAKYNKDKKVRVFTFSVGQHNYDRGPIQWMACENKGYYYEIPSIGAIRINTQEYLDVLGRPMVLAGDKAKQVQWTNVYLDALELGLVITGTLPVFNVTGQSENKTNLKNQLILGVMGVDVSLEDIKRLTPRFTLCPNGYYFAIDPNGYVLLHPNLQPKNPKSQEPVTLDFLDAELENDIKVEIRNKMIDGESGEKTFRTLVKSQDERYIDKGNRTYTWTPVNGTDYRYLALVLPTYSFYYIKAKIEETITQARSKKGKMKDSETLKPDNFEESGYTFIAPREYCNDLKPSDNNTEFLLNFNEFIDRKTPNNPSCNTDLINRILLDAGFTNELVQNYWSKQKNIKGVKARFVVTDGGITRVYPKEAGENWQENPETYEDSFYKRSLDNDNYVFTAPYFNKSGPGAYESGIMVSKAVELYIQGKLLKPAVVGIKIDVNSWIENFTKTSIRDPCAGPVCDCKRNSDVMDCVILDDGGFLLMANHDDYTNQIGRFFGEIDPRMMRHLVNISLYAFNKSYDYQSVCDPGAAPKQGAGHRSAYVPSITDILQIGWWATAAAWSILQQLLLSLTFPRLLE
T2 sequence (P54290 945-1091 partner limits assumed): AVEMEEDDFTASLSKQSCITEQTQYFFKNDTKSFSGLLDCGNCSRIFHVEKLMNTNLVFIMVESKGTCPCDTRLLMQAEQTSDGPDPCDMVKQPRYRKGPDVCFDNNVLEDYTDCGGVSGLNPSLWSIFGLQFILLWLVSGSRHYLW
T2 sequence (P54283 whole entry partner): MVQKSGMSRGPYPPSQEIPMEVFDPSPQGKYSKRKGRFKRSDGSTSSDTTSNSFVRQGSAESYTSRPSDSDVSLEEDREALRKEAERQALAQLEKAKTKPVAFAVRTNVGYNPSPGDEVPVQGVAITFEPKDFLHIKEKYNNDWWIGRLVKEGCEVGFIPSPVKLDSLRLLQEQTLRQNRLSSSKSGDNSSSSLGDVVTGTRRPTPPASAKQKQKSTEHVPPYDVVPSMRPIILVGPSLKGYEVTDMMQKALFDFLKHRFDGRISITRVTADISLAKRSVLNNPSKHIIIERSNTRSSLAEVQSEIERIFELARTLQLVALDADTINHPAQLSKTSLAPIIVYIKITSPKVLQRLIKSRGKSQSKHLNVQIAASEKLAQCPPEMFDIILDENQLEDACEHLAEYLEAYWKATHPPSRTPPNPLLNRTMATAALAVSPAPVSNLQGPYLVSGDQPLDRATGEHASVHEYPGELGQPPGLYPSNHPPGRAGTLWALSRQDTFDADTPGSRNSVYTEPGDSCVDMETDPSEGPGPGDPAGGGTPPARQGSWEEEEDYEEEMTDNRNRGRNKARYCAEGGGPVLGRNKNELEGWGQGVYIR

## O=C(CN(c1ccccc1)c1ccccc1)N1CCN(C(c2ccccc2)c2cccc(Cl)c2Cl)CC1 (centres unmarked) [Compound 7, 1-{4-[(2,3-Dichloro-phenyl)-phenyl-methyl]-piperazin-1-yl}-2-diphenylamino-ethanone]
[1]; 30 min
  Thermal Hyperalgesia (% Activity): 38.45 ± 18.52%
[1]; 60 min
  Thermal Hyperalgesia (% Activity): 78.54 ± 10.74%
[1]; 90 min
  Thermal Hyperalgesia (% Activity): 40.21 ± 17.08%
[1]; 120 min
  Thermal Hyperalgesia (% Activity): 20.98 ± 10.36%
[2]; −80 mV (inactivation protocol, voltage-dependent block), read-out: IC50 - 80 mV
  IC50: 1000 nM
[2]; −100 mV pre-pulse (non-inactivating protocol, resting block), read-out: IC50 - 100 mV
  IC50: 1000 nM
Rat formalin model
  Maximum Possible Effect±SEM, Phase II Total: 63 ± 10%
  Maximum Possible Effect±SEM, Phase IIB: 64 ± 11%
[3]; low frequency stimulation 0.067 Hz (tonic block), read-out: IC50 @ 0.067 Hz
  IC50: 180 nM
[3]; pulse frequency 0.2 Hz (frequency dependent block), read-out: IC50 @ 0.2 Hz
  IC50: 140 nM

## COCC(=O)O[C@]1(CCN(C)CCCc2nc3ccccc3[nH]2)CCc2cc(F)ccc2[C@@H]1C(C)C [Mibefradil]
[4]
  selective for T-type over L-type channels: 10-30 fold
